Source: patent US20050276812A1, “Antibody-drug conjugates and methods” (Genentech, Inc., priority 2004, published 2005)

Columns and labels:
[1] = tested on: SK-BR-3 and BT-474 breast cancer cells; test: in vitro cellular proliferation assay of free drug and drug-linker; assay type: cell-based
Excerpt: Pharmaceutical formulations of a therapeutic antibody-drug conjugate (ADC) may contain certain amounts of unreacted drug moiety (D), antibody-linker intermediate (Ab-L), and/or drug-linker intermediate (D-L), as a consequence of incomplete purification and separation of excess reagents, impurities, and by-products, in the process of making the ADC; or time/temperature hydrolysis or degradation upon storage of the bulk ADC or formulated ADC composition. […] Alternatively, or in addition to, it may contain a detectable amount of drug-linker intermediate DM1-SMCC. Alternatively, or in addition to, it may contain a detectable amount of the antibody, trastuzumab.
Efficacy of ADC were measured by a cell proliferation assay employing the following protocol (Promega Corp. Technical Bulletin TB288; Mendoza et al (2002) Cancer Res. 62:5485-5488): • 1. An aliquot of 100 μl of cell culture containing about 10^4 cells (SKBR-3, BT474, MCF7 or MDA-MB-468) in medium was deposited in each well of a 96-well, opaque-walled plate. • 2. Control wells were prepared containing medium and without cells. • 3. ADC was added to the experimental wells and incubated for 3-5 days. • 4. The plates were equilibrated to room temperature for approximately 30 minutes. • 5. A volume of CellTiter-Glo Reagent equal to the volume of cell culture medium present in each well was added. • 6. The contents were mixed for 2 minutes on an orbital shaker to induce cell lysis. • 7. The plate was incubated at room temperature for 10 minutes to stabilize the luminescence signal. • 8. Luminescence was recorded and reported in graphs as RLU=relative luminescence units.

[2] = 5-day acute toxicity study in rats; assay type: in vivo, female Sprague-Dawley rats; conditions: free DM1, 160 μg/kg (Group 6)
Experimental: Antibody-drug conjugates and an ADC-minus control, “Vehicle”, were evaluated in an acute toxicity rat model. Toxicity of ADC was investigated by treatment of female Sprague-Dawley rats with the ADC and subsequent inspection and analysis of the effects on various organs. Based on gross observations (body weights), clinical pathology parameters (serum chemistry and hematology) and histopathology, the toxicity of ADC may be observed, characterized, and measured.
Body weight was measured daily. Clinical chemistry, serum enzymes and hematology analysis was conducted on days 3 and 5; concluding with complete necropsy with histopathological assessment.
Animals were injected on day 1, complete chemistry and hematology profiles were obtained at baseline, day 3 and day 5 and a complete necropsy was performed on day 5. Routine histology was performed on three random animals for each group for the following tissues: sternum, liver, kidney, thymus, spleen, large and small intestine.

With `COc1cc2cc(c1Cl)N(C)C(=O)C[C@H](OC(=O)[C@H](C)N(C)C(=O)CCS)[C@]1(C)O[C@H]1[C@H](C)[C@@H]1C[C@@](O)(NC(=O)O1)[C@H](OC)/C=C/C=C(\C)C2` [DM1, N^2′-deacetyl-N^2′-(3-mercapto-1-oxopropyl)-maytansine] the IC50 [1] was 4.5 nM and the severity of toxicity [2] was “less than that seen in animals of Group 2”.
In the case of `COc1cc2cc(c1Cl)N(C)C(=O)C[C@H](OC(=O)[C@H](C)N(C)C(=O)CCSC1CC(=O)N(CC3CCC(C(=O)ON4C(=O)CCC4=O)CC3)C1=O)[C@]1(C)O[C@H]1[C@H](C)[C@@H]1C[C@@](O)(NC(=O)O1)[C@H](OC)/C=C/C=C(\C)C2` (stereo partly shown) [DM1-SMCC], the IC50 [1] is reported as 50 nM and the “times less potent in cell killing than free drug DM1” value [1] is reported as “about 20 times”.
